The values below come from ChEMBL document CHEMBL1201862, “PubChem BioAssay data set” (2004).

Common to all, as to assay: DTP human tumour cell line panel, 48 h
The test system of assay [1] is ACHN.
Assay [2] has as its system BT-549.
Assay [3] relates to CAKI-1.
The subject of assay [4] is HCC 2998.
Assay [5] relates to HCT-15.
Assay [6] deals with HT-29.
Assay [7] relates to LOX IMVI.
Assay [8] concerns M14.
Assay [9] has as its system MCF7.
Assay [10] concerns MDA-MB-231.
Assay [11] deals with MDA-N.
For assay [12], the system named is Malme-3M.
In assay [13] the test system is NCI-H226.
Assay [14] has as its system OVCAR-5.
In assay [15] the test system is RPMI-8226.
Assay [16] concerns SF-295.
The test system of assay [17] is SK-MEL-28.
Assay [18] deals with SK-OV-3.
The test system of assay [19] is SNB-19.
Assay [20] deals with UACC-62.

Molecules are shown by their SMILES.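 Step 1: Grow cells in 96-well plates. Step 2: Expose to compound for 48 hours at 5 concentrations. Step 3: Interpolate endpoints linearly; if unreached, use highest concentration. GI50: concentration for 50% inhibition of growth.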 The source made the active and inactive calls. Rule as the data show it: active = GI50 up to about 1.1 µM and inactive = higher.

With `CCn1nc2c3c(ncn3C(C)(C)O2)c1=O`, the GI50 in [1] is > 100 µM (inactive); in [2] it was > 100 µM (inactive); in [3], > 100 µM (inactive); in [4] it was > 100 µM (inactive); in assay [5], over 100 µM; in assay [6], > 100 µM (inactive). Moreover, the GI50 in assay [7], in assay [8], in assay [9], in [10], in [11] and in assay [12] was > 100 µM (inactive) throughout. The GI50 in assay [13], in assay [14], in [15], in [16], in [17] and in assay [18] was > 100 µM (inactive) each time. Moreover, the GI50 in assay [19] and in assay [20] was > 100 µM (inactive) throughout.
Take `Cn1c2ccccc2c(=NNc2cccc(C(=O)O)c2)c2ccccc21`: the GI50 in assay [1] was 5.85 µM (inactive); in [2], 7.59 µM (inactive); in assay [3], 25.1 µM (inactive); in assay [4], 3.3 µM (inactive); in assay [5], 15.3 µM; in assay [6] it was 3.1 µM (inactive). For the same compound, the GI50 in [7] was 5.05 µM (inactive); in assay [8], 19.6 µM (inactive); in assay [9], 3.4 µM (inactive); in assay [10], 11 µM (inactive); in assay [11], 16.1 µM (inactive); in [12], 20.1 µM (inactive). Besides, the GI50 is 12.1 µM (inactive) in [13]; 14.4 µM (inactive) in assay [14]; 5.96 µM (inactive) in [15]; 16 µM (inactive) in assay [16]; 19.2 µM (inactive) in [17]; 14.8 µM (inactive) in assay [18]. The GI50 in assay [19] was 6.84 µM (inactive); in [20], 16.9 µM (inactive).
For the compound `COc1ccc(/C=C/C(=N/NC(=O)N/N=C(/C=C/c2ccc(OC)cc2)C(C)C)C(C)C)cc1`, the GI50 in assay [1] is 73.8 µM (inactive); in assay [2], > 100 µM (inactive); in assay [3] it was > 100 µM (inactive); in assay [4] it was 38.7 µM (inactive); in [5] it was 49.5 µM; in assay [6] it was 42.3 µM (inactive). The GI50 in [7] was > 100 µM (inactive); in assay [8] it was 44.4 µM (inactive); in assay [9], 64.6 µM (inactive); in assay [10], > 100 µM (inactive); in assay [11], > 100 µM (inactive); in assay [12], 62.8 µM (inactive). Also, the GI50 is > 100 µM (inactive) in [13]; 99.5 µM (inactive) in assay [14]; 33.2 µM (inactive) in assay [15]; 99.1 µM (inactive) in [16]; > 100 µM (inactive) in assay [17]; > 100 µM (inactive) in assay [18]. For the same compound, the GI50 in assay [19] and in assay [20] was > 100 µM (inactive) each time.
`CC(=O)O[C@H](C[C@@H](C)[C@H]1C(=O)[C@H](O)[C@@]2(C)C3CC[C@H]4C(C)(C)[C@@H](OC5OCC(O)C(O)C5O)CC[C@@]45C[C@@]35CC[C@]12C)[C@@H]1OC1(C)C` (stereo not given in full): the GI50 is 14 µM (inactive) in assay [1]; 21.9 µM (inactive) in assay [2]; 16.8 µM (inactive) in assay [3]; 16.3 µM (inactive) in assay [4]; 24.6 µM in assay [5]; 29.4 µM (inactive) in assay [6]. The GI50 in assay [7] is 30.3 µM (inactive); in assay [8], 31.1 µM (inactive); in assay [9], 17.9 µM (inactive); in assay [10] it was 16.1 µM (inactive); in assay [11], 19.3 µM (inactive); in assay [12], 17.2 µM (inactive). The GI50 in [13] was 17.5 µM (inactive); in [14] it was 16.9 µM (inactive); in [15], 12.4 µM (inactive); in [16], 16.3 µM (inactive); in assay [17], 20.3 µM (inactive); in [18], 12.7 µM (inactive). Further, the GI50 in [19] is 20.1 µM (inactive); in [20], 14.1 µM (inactive).
As for `O=S(=O)(O)c1ccc(NN(c2c(O)ccc3ccccc23)S(=O)(=O)O)cc1`, the GI50 is > 100 µM (inactive) in assay [1]; > 100 µM (inactive) in assay [2]; > 100 µM (inactive) in [3]; > 100 µM (inactive) in assay [4]; over 100 µM in assay [5]; > 100 µM (inactive) in assay [6]. For the same compound, the GI50 in [7], in assay [8], in assay [9], in assay [10], in [11] and in [12] was > 100 µM (inactive) in each case. Besides, the GI50 in [13], in [14], in [15], in [16], in [17] and in assay [18] was > 100 µM (inactive) in each case. For the same compound, the GI50 in assay [19] and in assay [20] was > 100 µM (inactive) each time.
In the case of `N=C(N)NS(=O)(=O)c1ccc(NNc2c3ccccc3nc3c(C(=O)Nc4ccc(S(N)(=O)=O)cc4)cccc23)cc1`, the GI50 in assay [1] was 52.7 µM (inactive); in assay [2] it was 19.5 µM (inactive); in assay [3], > 100 µM (inactive); in assay [4], 19.5 µM (inactive); in [5] it was over 100 µM; in [6] it was 23.4 µM (inactive). For the same compound, the GI50 is 10.4 µM (inactive) in assay [7]; 83.4 µM (inactive) in assay [8]; 8.47 µM (inactive) in [9]; 27.9 µM (inactive) in [10]; 76.6 µM (inactive) in [11]; 20.6 µM (inactive) in assay [12]. In addition, the GI50 in [13] is 92 µM (inactive); in assay [14], 76 µM (inactive); in [15] it was 17.8 µM (inactive); in assay [16], 48.2 µM (inactive); in [17] it was 68.1 µM (inactive); in assay [18], > 100 µM (inactive). For the same compound, the GI50 was 22.9 µM (inactive) in assay [19] and 18.7 µM (inactive) in assay [20].
Take `Cc1ccc(/C=C2\N=C(N3CCCC(CO)C3)NC2=O)cc1` (stereo not given): the GI50 in assay [1] was > 100 µM (inactive); in assay [2], > 100 µM (inactive); in assay [3] it was > 100 µM (inactive); in assay [4], > 100 µM (inactive); in assay [5], over 100 µM; in assay [6] it was > 100 µM (inactive). In addition, the GI50 in [7], in assay [8], in assay [9], in assay [10], in [11] and in [12] was > 100 µM (inactive) each time. Further, the GI50 in [13], in assay [14], in assay [15], in [16], in [17] and in [18] was > 100 µM (inactive) in each case. In addition, the GI50 in assay [19] and in assay [20] was > 100 µM (inactive) in each case.
Turning to `O=c1oc2ccccc2cc1-c1cn2ccccc2n1`, the GI50 in assay [1] was 3.49 µM (inactive); in assay [2], 11.9 µM (inactive); in assay [3] it was 5.75 µM (inactive); in assay [4], 20.1 µM (inactive); in [5], 16.7 µM; in assay [6], 12.6 µM (inactive). For the same compound, the GI50 is 12.6 µM (inactive) in assay [7]; 8.51 µM (inactive) in assay [8]; 13.8 µM (inactive) in assay [9]; 6.4 µM (inactive) in assay [10]; 4.88 µM (inactive) in assay [11]; 3.22 µM (inactive) in assay [12]. For the same compound, the GI50 was 8.43 µM (inactive) in assay [13]; 21.7 µM (inactive) in assay [14]; 10.4 µM (inactive) in assay [15]; 3.66 µM (inactive) in [16]; 4.4 µM (inactive) in assay [17]; 4.01 µM (inactive) in assay [18]. The GI50 in assay [19] was 3.32 µM (inactive); in [20], 4.65 µM (inactive).
As for `CC1CCCCCC(=O)c2c(O)cc(O)cc2CC(=O)O1` (stereo not given) [CURVULARIN], the GI50 in assay [1] is > 100 µM (inactive); in assay [2], 54.1 µM (inactive); in [3], > 100 µM (inactive); in [4] it was > 100 µM (inactive); in assay [5], over 100 µM; in assay [6], > 100 µM (inactive). Moreover, the GI50 in assay [7] is 43.9 µM (inactive); in assay [8], > 100 µM (inactive); in assay [9], > 100 µM (inactive); in assay [10] it was > 100 µM (inactive); in assay [11] it was > 100 µM (inactive); in assay [12], > 100 µM (inactive). The GI50 was > 100 µM (inactive) in assay [13]; > 100 µM (inactive) in assay [14]; 67.8 µM (inactive) in assay [15]; 94.8 µM (inactive) in assay [16]; > 100 µM (inactive) in [17]; > 100 µM (inactive) in [18]. For the same compound, the GI50 in assay [19] and in [20] was > 100 µM (inactive) throughout.
As for `CSC1=C(SC)SC(=C2SC3=C(SC(=C4SCCS4)S3)S2)S1`, the GI50 in [1] was > 100 µM (inactive); in [2] it was > 100 µM (inactive); in assay [3] it was > 100 µM (inactive); in [4], > 100 µM (inactive); in assay [5], over 100 µM; in assay [6], > 100 µM (inactive). Also, the GI50 in assay [7], in assay [8], in assay [9], in [10], in assay [11] and in assay [12] was > 100 µM (inactive) in each case. In addition, the GI50 in assay [13], in assay [14], in assay [15], in [16], in assay [17] and in assay [18] was > 100 µM (inactive) throughout. For the same compound, the GI50 in assay [19] and in assay [20] was > 100 µM (inactive) in each case.

In general, GI50 refers to the concentration that inhibits growth by half.
